Test results from paper PMC10433847, “The Plasmodium Lactate/H^+ Transporter PfFNT Is Essential and Druggable In Vivo” (Antimicrobial Agents and Chemotherapy, 2023).

Legend:
[1] = system: P. berghei; assay: 4-day Peters' test, P. berghei-infected mouse malaria model; assay type: in vivo; details: for Activity (%) / Survival / Parasite-free mice (n/total): once per day on 4 consecutive days
Protocol: Finally, we tested BH267.meta in vivo in a P. berghei-infected mouse malaria model. For comparison, we included the established antimalarials chloroquine, mefloquine, and artesunate in the assay. Efficacy was determined by a 4-day Peters’ test ([20], [21]) after oral administration of 30, 10, and 3 mg kg^−1 day^−1 for each antimalarial for four consecutive days. At 4 × 3 mg kg^−1 treatment with BH267.meta, parasitemia was at 0.2% after 4 days, while doses of 10 mg kg^−1 and higher decreased the parasitemia below the limit of quantitation (LOQ) of 0.1%. […] Artesunate yielded lower activity at 4 × 3 mg kg^−1. The average survival after BH267.meta treatment was similar to that after artesunate treatment and ranged from 8.0 d (3 mg kg^−1) to 13.0 d (30 mg kg^−1) due to recurring parasitemia (Table 1).
(§1) In vivo efficacy of BH267.meta against P. berghei was determined as previously described ([20], [21]). Mice were infected with a GFP-transfected P. berghei ANKA strain (donated by A. P. Waters and C. J. Janse, Leiden University, Leiden, The Netherlands), and parasitemia was determined using standard flow cytometry techniques. The detection limit was 0.1%, i.e., 1 parasite in 1,000 erythrocytes. Activity was calculated as the difference between the mean parasitemia for the control and treated groups (n = 3, each) expressed relative to the control group. BH267.meta was dissolved (3 mg kg ^−1 doses) or suspended (all higher doses) in 70/30 Tween 80/ethanol, diluted 10-fold with water, and administered orally as four consecutive daily doses (4, 24, 48, and 72 h after infection). […] different doses of BH267.meta were analyzed (30, 10, and 3 mg kg ^−1). In vivo efficacy against P. falciparum was conducted at The Art of Discovery, Derio, Spain according to the standard assay previously described ([22], [23]). Animal experiments against P. berghei were carried out at the Swiss Tropical and Public Health Institute and adhered to local and national regulations of laboratory animal welfare in Switzerland (awarded permission no. 1731). Protocols are regularly reviewed and revised following approval by the local authority (Veterinäramt Basel Stadt).

[2] = system: P. falciparum parasites with PfFNT G21E mutation; assay: EC50 determination by flow cytometry, drug-selected parasites with PfFNT G21E; assay type: cell-based, Plasmodium falciparum; details: parasites with G21E amino acid change vs 3D7 wild-type
Protocol: (§2) P. falciparum parasites, 3D7, were cultured in RPMI 1640 medium supplemented with 0.5% Albumax with 0+ erythrocytes (University Medical Center Hamburg-Eppendorf, Hamburg, Germany) at a 5% hematocrit at 37°C in an atmosphere containing 5% CO2, 1% O2, and 94% N2 under standard conditions ([31]). To obtain resistant parasites, 50 mL of parasite culture, starting with 5 × 10^8 to 6 × 10^8 parasites, were exposed to 3 × IC50 of either MMV007839 or BH267.meta until parasitemia was established again (around 2 weeks). For sequencing of the fnt gene, genomic DNA from the susceptible and resistant P. falciparum parasite lines was obtained from 5 mL of culture using the QIAamp DNA minikit (Qiagen, Hilden, Germany). The primer sequences used to sequence the entire fnt gene are available in Table S2. To determine the EC50, asynchronous parasites (0.5% to 1% starting parasitemia) were exposed to serial dilutions of the drug and grown for 2 days with one change of medium (including the appropriate concentration of drug), after which the parasitemia was determined using an LSR II FACS (BD Biosciences, Franklin Lakes, NJ) as previously described ([32]). The data were analyzed in GraphPad Prism to determine EC50 values.

[3] = system: P. falciparum parasites with PfFNT V196L mutation; assay: EC50 determination by flow cytometry, drug-selected parasites with PfFNT V196L; assay type: cell-based, Plasmodium falciparum; details: V196L mutation vs 3D7 wild-type
Protocol: as §2

[4] = system: P. falciparum; assay: P. falciparum SCID mouse model; assay type: in vivo; details: 50 mg kg−1 d−1 oral for four consecutive days, single animal; LOQ 0.01%
Protocol: In addition to the P. berghei efficacy assessment, we also evaluated BH267.meta in a P. falciparum severe combined immunodeficient (SCID) mouse model as previously described ([22], [23]). Efficacy was assessed following administration of 50 mg kg^−1 d^−1 for four consecutive days to a single animal (Fig. 7).
as §1, with “Animal experiments against P. berghei were carried out at the Swiss Tropical and Public Health Institute and adhered to local and national regulations of laboratory animal welfare in Switzerland (awarded permission no. 1731). Protocols are regularly reviewed and revised following approval by the local authority (Veterinäramt Basel Stadt).” left out

[5] = system: P. falciparum 3D7 blood stages; assay: Stage-specific action of BH267.meta on synchronized parasites; assay type: cell-based, Plasmodium falciparum; details: IC90 of BH267.meta added at ring, trophozoite or schizont stage
Protocol: Asynchronous cultures containing ~2% schizonts were purified using a 60% Percoll gradient and split into 4 tubes containing […] fresh blood and culture medium, shaken at 37°C for 30 min at 800 rpm to permit newly released merozoites to invade red blood cells, and then transferred into four 5-mL culture dishes. […] The cultures were maintained with daily medium changes and replenishment of IC90 BH267.meta when drug treatment had already commenced for a culture. Giemsa smear and flow cytometry were performed as described previously ([32]), and samples were taken at regular intervals (daily or every 12 h).

[6] = system: P. falciparum parasite culture; parameters: method as in PMID 32816478; details: read-out: effectiveness in parasite culture; cited from earlier work

SMILES | Activity (%) ([1]; 3 mg kg−1 day−1 oral) | Survival ([1]; 3 mg kg−1 day−1 oral) [days] | Activity (%) ([1]; 10 mg kg−1 day−1 oral) | Parasite-free mice (n/total) ([1]; 10 mg kg−1 day−1 oral) | Survival ([1]; 10 mg kg−1 day−1 oral) [days] | Activity (%) ([1]; 30 mg kg−1 day−1 oral) | Parasite-free mice (n/total) ([1]; 30 mg kg−1 day−1 oral) | Survival ([1]; 30 mg kg−1 day−1 oral) [days] | reduction in sensitivity compared to the 3D7 parasites [2] | fold increased IC50 [3] [fold] | parasitemia after 4 days ([1]; 4 × 3 mg kg−1 oral) [%] | efficacy ([1]; all tested doses (30, 10, 3 mg kg−1 day−1, 4 days oral)) [%] | parasitemia ([1]; doses of 10 mg kg−1 and higher, 4 days oral, LOQ 0.1%) [%] | symptoms or side effects elicited by the compound ([1]; mice under treatment, 3-30 mg kg−1 day−1 oral for 4 days) | activity in mice ([1]; mouse malaria models) [%] | parasitemia [4] [%] | blood stage affected [5] | EC50 [6] [µM]
OC(c1cc(C(F)(F)F)nc2c(C(F)(F)F)cccc12)C1CCCCN1 (centres unmarked) [Mefloquine, mefloquine] | 93.0 | 13.0 | 99.9 | 1/5 | 21.0 | 99.9 | 4/5 | 29.1 | – | – | – | – | – | – | – | – | – | –
COc1ccc(C(=O)/C=C(\O)C(F)(F)C(F)(F)F)cc1 [BH296] | – | – | – | – | – | – | – | – | 3.0 fold | 7.4 | – | – | – | – | – | – | – | –
COc1ccc2c(c1)OC(O)(C(F)(F)C(F)(F)F)CC2=O (centres unmarked) [MMV007839] | – | – | – | – | – | – | – | – | 8.4 fold | – | – | – | – | – | – | – | – | –
CCN(CC)CCCC(C)Nc1ccnc2cc(Cl)ccc12 (centres unmarked) [Chloroquine, chloroquine] | 99.0 | 11.0 | 99.9 | – | 15.5 | 99.9 | – | 21.2 | – | – | – | – | – | – | – | – | – | –
C[C@H]1[C@H](OC(=O)CCC(=O)O)O[C@@H]2O[C@@]3(C)CC[C@H]4[C@H](C)CC[C@@H]1[C@@]24OO3 [Artesunate, artesunate] | 85.0 | 8.8 | 99.1 | – | 8.1 | 99.0 | – | 9.2 | – | – | – | – | – | – | – | – | – | –
O=C(/C=C(\O)C(F)(F)C(F)(F)F)c1cccnc1 [BH267.meta] | 99.7 | 8.0 | 99.9 | – | 10.7 | 99.8 | – | 13.0 | no alteration in the response | – | 0.2 | ≥ 99.7 | < 0.1 | free of symptoms or side effects | > 99 | < 0.01 | specifically affects the trophozoite stage | 0.24
